# In patent US11357752B2, “Carolacton and derivatives thereof for use in the treatment of cell proliferation disorders” (Helmholtz-Zentrum für Infektionsforschung GmbH, priority 2017, dated 2022):
# Read-outs that look alike come from different tables or passages of the source.
# Columns and labels:
# E. coli ToIC = experiment: Minimum inhibition concentration (MIC); assay type: cell-based; conditions: Escherichia coli, read-out: minimum inhibition concentration (MIC)
# Excerpt: First, the minimum inhibition concentration (MIC) of carolacton on E. coli ToIC strain has been determined. We started to develop the resistant mutants on CASO agar plates supplemented with 4× the MIC concentration of carolacton as selection pressure. Different numbers of E. coli ToIC cells from 1×10^7 to 10^9 were spread on caso agar plate with carolacton, respectively. After 7 days, E. coli ToIC colonies, which were resistant to carolacton, started to form on the agar plates. The mutants picked were inoculated in liquid MHB medium supplemented with carolacton.
# hsMTHFD1 DC301 = target: T1, hsMTHFD1 DC301 (Homo sapiens, UniProt P11586); experiment: FoID dehydrogenase (DH) enzyme assay; assay type: biochemical
# T1 construct: We therefore expressed and purified hsMTHFD2 and hsMTHFD1_DC to test them biochemically; His-tag (vector pHis-TEV); made in house; host or cells: E. coli BL21 (DE3)
# T1 sequence (P11586 2-291 limits assumed): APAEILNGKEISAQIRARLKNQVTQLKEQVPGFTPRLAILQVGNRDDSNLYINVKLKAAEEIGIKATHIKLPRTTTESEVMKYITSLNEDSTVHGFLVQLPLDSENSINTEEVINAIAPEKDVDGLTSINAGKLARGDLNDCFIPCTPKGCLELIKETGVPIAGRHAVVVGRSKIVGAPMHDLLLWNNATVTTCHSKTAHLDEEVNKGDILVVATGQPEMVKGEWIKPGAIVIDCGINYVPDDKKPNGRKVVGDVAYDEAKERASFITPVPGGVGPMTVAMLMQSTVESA
# Description: (§1) (6R,S)-5,10-Methylene-5,6,7,8-tetrahydrofolic acid ((6R,S)-5,10-CH2-THF), calcium salt and (6R,S)-5,10-Methenyl-5,6,7,8-tetrahydrofolic acid ((6R,S)-5,10-CH=THF) chloride were purchased from Schircks Laboratories (Bauma, Switzerland) and were used as substrates for FoID dehydrogenase and cyclohydrolase enzyme assays, respectively. Only the R-isomer, which accounts for 50% of (6R,S)-5,10-CH2-THF and (6R,S)-5,10-CH=THF, respectively, is used by the enzyme. (6R,S)-5,10-CH2-THF was dissolved in N2-spargeled basic buffer (50 mM Tris-HCl (pH 8.0), 100 mM β-mercaptoethanol) as described by Sah and Varshney, 2015a (6R,S)-5,10-CH=THF was first dissolved in DMSO as a 100 mM stock solution.
# (§2) Because FoID is a bifunctional enzyme, dehydrogenase and cyclohydrolase activities were determined for FoID enzyme kinetics, respectively. The dehydrogenase activity of FoID was assayed for its substrate 5,10-CH2-THF and cofactor NADP+ (in the case of MTHFD2, NAD+ was used as cofactor) based on monitoring the formation of 5,10-CH=THF while the cyclohydrolase activity of FoID was determined for its substrate 5,10-CH=THF by monitoring the hydrolysis of 5,10-CH2-THF. The enzyme kinetics for the dehydrogenase activity of all FoIDs except hsMTHFD1_DC were determined at 30° C. in 50 mM Tris-HCl (pH 7.5), 30 mM β-mercaptoethanol. The hsMTHFD1_DC dehydrogenase activity was measured in 25 mM MOPS (pH 7.3), 30 mM β-mercaptoethanol at 30° C. To measure the enzyme kinetics constants for 5,10-CH2-THF, for example in the case of ecFoID, the NADP concentration was fixed at 1 mM and the concentration of 5,10-CH2-THF varied from 5 μM to 1,500 μM (R-isomer). Similarly, to measure the kinetic constants of ecFoID for NADP+, the concentration of 5,10-CH2-THF (R-isomer) was fixed at 1 mM and the concentration of NADP+ varied from 10 μM to 1,500 μM. For different FoIDs, the varied concentration range of substrates could be different. The 50 μL reactions of dehydrogenase assays were initiated by adding appropriate amounts enzyme (4 nM ecFoID, 4 nM spFoID, 15 nM hsMTHFD1_DC, 20 nM hsMTHFD2, 20 nM G8S, 20 nM Q98H, 10 nM K54N, 200 nM ΔK54R55 in the corresponding assays) and terminated with 50 μL 1 M HCl after 2 min incubation at 30° C. To monitor the formation of 5,10-CH=THF, the absorbance of the reaction mixture was monitored at 350 nm in micro UV cuvettes (BRAND, Essex, Connecticut, USA). The concentration of 5,10-CH=THF produced in the reaction was determined using an extinction co-efficient of 0.0249 μM-1 cm-1. Cyclohydrolase activity for each FoID was assayed in the same buffer as dehydrogenase activity at 30° C. but for 30 s. The concentration of FoID used in each assay was 5 nM of ecFoID, spFoID and hsMTHFD1_DC, respectively, and 2 nM of hsMTHFD2. The consumption of 5,10-CH=THF was measured by recording the absorbance of the reactions at 355 nm using the TECAN Infinite 200 PRO equipped with a monochromator. To measure the enzyme kinetic constants, different concentrations of 5,10-CH=THF (varied from […]) were used in […] reaction mixtures. The inhibition constants (Ki) of carolacton on FoID were determined by measuring the apparent Km values when adding certain amounts of carolacton to the enzyme reactions. For ecFoID, 10 nM carolacton was added in the dehydrogenase assay and 50 nM carolacton was used in the cyclohydrolase assay. For spFoID, 25 nM carolacton was added in both dehydrogenase assay and cyclohydrolase assay. For hsMTHFD1_DC, 30 nM carolacton was added in the dehydrogenase assay and 10 nM in the cyclohydrolase assay. […] To compare the inhibition effects of carolacton between the different FoIDs, the half maximal inhibitory concentration (IC50) of carolacton on the same amount of enzyme was determined for FoIDs involved in this study. The enzyme concentration used to determine dehydrogenase activity IC50 was 10 nM, and the enzyme used for cyclohydrolase IC50 measurements was 5 nM. All enzyme kinetics measurements were performed as independent triplicates. […]
# hsMTHFD2 = target: T2, hsMTHFD2 (Homo sapiens, UniProt P13995); experiment: FoID dehydrogenase (DH) enzyme assay; assay type: biochemical
# T2 construct: His-tag (vector pHis-TEV); made in house; host or cells: E. coli BL21 (DE3)
# T2 sequence (P13995 36-350): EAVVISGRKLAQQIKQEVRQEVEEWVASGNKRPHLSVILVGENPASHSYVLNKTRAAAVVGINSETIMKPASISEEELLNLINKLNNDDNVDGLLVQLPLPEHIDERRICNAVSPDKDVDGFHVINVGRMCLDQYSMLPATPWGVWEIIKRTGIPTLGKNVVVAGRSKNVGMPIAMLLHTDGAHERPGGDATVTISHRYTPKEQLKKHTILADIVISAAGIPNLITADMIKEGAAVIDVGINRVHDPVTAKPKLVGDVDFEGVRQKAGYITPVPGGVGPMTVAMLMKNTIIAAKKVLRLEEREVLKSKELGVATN
# Description: as §1, §2
# [1] = 10 nM enzyme, read-out: IC50, carolacton inhibition on DH activity
# [2] = vs 5,10-CH2-THF, read-out: Ki (5,10-CH2—THF), carolacton inhibition on DH activity
smiles,measurement,setting,value
"CO[C@H](CC(=O)O)[C@@H](C)C(=O)[C@H](C)/C=C(\C)[C@H]1OC(=O)[C@H](O)[C@H](O)/C=C/[C@H](C)CCC[C@@H]1C [Carolacton, carolacton]",MIC,E. coli ToIC,0.125 µg/mL
same,IC50,hsMTHFD1 DC301; [1],38 nM
same,Ki,hsMTHFD1 DC301; [2],5.93 nM
same,Ki,"hsMTHFD1 DC301; vs cofactor NADP+, read-out: Ki (NADP^+), carolacton inhibition on DH activity",58.7 nM
same,IC50,hsMTHFD2; [1],6.5 nM
same,Ki,"hsMTHFD2; cofactor is NAD in the case of hsMTHFD2, read-out: Ki (NADP^+)^a, carolacton inhibition on DH activity",16.7 nM
same,Ki,hsMTHFD2; [2],6.42 nM
